# In patent US10632211B2, “Demethylation to treat eye disease” (The Regents of the University of California, priority 2018, dated 2020):
# Columns and labels:
# ELOVL2 promoter [1] = assay: ELOVL2 promoter methylation by MeDIP followed by qPCR in 5-Aza-dc treated WI-38 cells; assay type: cell-based, human; settings: WI-38 fibroblasts, 2 μM for 2 days followed by 5 days of culture without the compound; MeDIP-qPCR vs untreated control (FIG. 2A)
# Description: (§1) The effect of the ELOVL2 promoter methylation level on ELOVL2 expression was tested. WI-38 fibroblasts were treated with 5-Aza-2′-deoxycytidine (5-Aza-dc), a cytidine analog that inhibits DNA methyltransferase. The cells were treated for 2 days with 2 μM 5-Aza-dc followed by 5 days of culture without the compound. At the end of experiment, the expression of ELOVL2 was measured by qRT-PCR.
# (§2) WI-38 and IMR-90 human fibroblasts were cultured in EMEM (ATCC) supplemented with 10% fetal bovine serum (Omega) and 1% penicillin/streptomycin (Gibco), and kept in a humidified incubator at 5% CO2 and 37° C. Confluence was calculated via ImageJ imaging software, including 3 fields of view per sample (10×). Upon confluence, cells were split and seeded at a 1:3 ratio. Population doublings (PD) were calculated by cell count. Knockdown lentivirus was generated using MISSION shRNA (Sigma) according to the manufacturer's instructions. 5-Aza-2′-deoxycitidine was purchased from TSZ Chem (CAS #2353-33-5), and dissolved in cell culture medium at a concentration of 2 μM. Cells were treated for a period of 48 hours. The medium was then replaced with regular cell culture medium, and the cells were cultured for 5 more days.
# (§3) DNA and RNA were isolated from human fibroblasts and mouse tissues with TRIzol (Ambion) according to manufacturer's instructions. […]
# ELOVL2 expression [2] = assay: ELOVL2 expression by qRT-PCR in 5-Aza-dc treated WI-38 cells; assay type: cell-based, human; settings: WI-38 fibroblasts, 2 μM for 2 days followed by 5 days without the compound; qRT-PCR vs untreated control (FIG. 2B)
# Description: as §1, §2, §3
# WI-38 cells = assay: Senescence-associated β-galactosidase staining of 5-Aza-dc treated WI-38 cells; assay type: cell-based, human; settings: WI-38 fibroblasts, 2 μM; SA-β-Gal staining (FIG. 2C)
# Description: as §1
# WI-38 and IMR-90 human fibroblasts were cultured in EMEM (ATCC) supplemented with 10% fetal bovine serum (Omega) and 1% penicillin/streptomycin (Gibco), and kept in a humidified incubator at 5% CO2 and 37° C. Confluence was calculated via ImageJ imaging software, including 3 fields of view per sample (10×). Upon confluence, cells were split and seeded at a 1:3 ratio. Population doublings (PD) were calculated by cell count. Knockdown lentivirus was generated using MISSION shRNA (Sigma) according to the manufacturer's instructions. […]
# The SA-β-gal activity in cultured cells was determined using the Senescence β-Galactosidase Staining Kit (Cell Signaling Technology), according to the manufacturer's instructions. Cells were stained with DAPI afterwards, and percentages of cells that stained positive were calculated with imaging software (Keyence), including 3 fields of view (10×).
# ELOVL2 promoter [3] = assay: ELOVL2 methylation by MeDIP in mouse retinas after intraocular injection; assay type: in vivo; settings: mouse retina, 1 μL of 2 μM intraocular every other week for 2 months from age 10 months, vs PBS eye; MeDIP (FIG. 5A)
# Description: (§4) Finally, it was investigated whether the aging characteristics in mouse eyes could be reverted by DNA demethylation, including the ELOVL2 promoter. To do that, each mouse was injected with 1 μL of 2 μM 5-Aza-dc in one eye and 1 μL of PBS in the other eye, every other week over a period of 2 months starting at age of 10 months. It was found, using the MeDIP method, that methylation of the ELOVL2 promoter decreased after treatment (FIG. 5A).
# (§5) DNA and RNA were isolated from human fibroblasts and mouse tissues with TRIzol (Ambion) according to manufacturer's instructions. RNA was converted to cDNA with iScript cDNA Synthesis Kit (Bio-Rad). qPCR was performed using SsoAdvanced Universal SYBR Green Supermix (Bio-Rad).
# Methylated DNA Immunoprecipitation (MeDIP) was performed by shearing 1 μg DNA by Bioruptor (Diagenode) for 8 cycles on the high setting, each cycle consisting of 30 seconds on and 30 seconds off. Sheared DNA was denatured, incubated with 1 μg 5 mC antibody MABE146 (Millipore) for 2 hours, then with SureBeads protein G beads (Bio-Rad) for 1 hour. After washing, DNA was purified with QIAquick PCR Purification Kit (Qiagen). qPCR was then performed as above.
# All animal procedures were conducted with the approval of the Institutional Animal Care Committee at the University of California, San Diego. C57BL/6N mouse zygotes were injected with CRISPR-Cas9 constructs. […]
# ELOVL2 expression [4] = assay: ELOVL2 expression by qPCR in mouse retinas after intraocular injection; assay type: in vivo; settings: mouse retina, 1 μL of 2 μM intraocular every other week for 2 months from age 10 months, vs PBS eye; qPCR (FIG. 5B)
# Description: as §4, §5
# All animal procedures were conducted with the approval of the Institutional Animal Care Committee at the University of California, San Diego. C57BL/6N mouse zygotes were injected with CRISPR-Cas9 constructs. Oligos were injected into the cytoplasm of the zygotes at the pronuclei stage. Mice were housed on static racks in a conventional animal facility, and were fed ad libitum with Teklad Global 2020X diet. For the 5-Aza-dc injection study, mice were anesthetized by intraperitoneal injection of ketamine/xylazine (100 mg/kg and 10 mg/kg, respectively), and given an analgesic eye drop of Proparacaine (0.5%, Bausch & Lomb). […]
# mouse eyes = assay: Scotopic ERG response in mouse eyes after intraocular injection; assay type: in vivo; settings: 1 μL of 2 μM intraocular every other week for 2 months from age 10 months, vs PBS eye (FIG. 5C, FIG. 13)
# Description: as §4
# All animal procedures were conducted with the approval of the Institutional Animal Care Committee at the University of California, San Diego. C57BL/6N mouse zygotes were injected with CRISPR-Cas9 constructs. Oligos were injected into the cytoplasm of the zygotes at the pronuclei stage. Mice were housed on static racks in a conventional animal facility, and were fed ad libitum with Teklad Global 2020X diet. For the 5-Aza-dc injection study, mice were anesthetized by intraperitoneal injection of ketamine/xylazine (100 mg/kg and 10 mg/kg, respectively), and given an analgesic eye drop of Proparacaine (0.5%, Bausch & Lomb). Animals were intraocularly injected with 1 μL of PBS in one eye, and 1 μL of 2 μM 5-Aza-dc dissolved in PBS in the contralateral eye, every other week over a period of 2 months.
# Electroretinograms (ERGs) were performed following a previously reported protocol. […]
# ELOVL2 methylation = assay: Human clinical use example: ELOVL2 methylation in intravitreal fluid after intravitreal decitabine; assay type: in vivo
# Description: (§6) A person with bilateral, dry age-related macular degeneration (AMD) is seen in an ophthalmology clinic. They are otherwise healthy. They consent to an experimental study comparing demethylation therapy verses control. At baseline both eyes show a similar level of AMD as evidenced by clinical assessments for visual acuity, size of geographic atrophy as measured by autofluorescence, optical coherence tomography, and scotopic response on electroretinography. The patient is treated with 100 uL of decitabine (20 uM) formulated as a sterile, isotonic, pH buffered solution administered by intravitreal injection in their left eye (active treatment). They receive 100 ul of the same sterile, isotonic, pH buffered solution but without decitabine administered by intravitreal injection in their right eye (control treatment). Immediately following the administration of the active and control treatments, a sample of intravitreal fluid is withdrawn from each eye for baseline measurements of ELOVL2 expression and methylation level. It is observed that ELOVL2 is hypermethylated to a similar extent in both eyes. The levels of ELOVL2 expression are also similar and a low level of expression is observed in both eyes. […]
# (§7) A person with dry age-related macular degeneration (AMD) with Geographic Atrophy is seen in an ophthalmology clinic. Their vision as assessed by scotopic response is declining. […]
# ELOVL2 gene expression = assay: Human clinical use example: ELOVL2 gene expression in intravitreal fluid after intravitreal decitabine; assay type: in vivo
# Description: as §6, §7
# patient with dry AMD [5] = assay: Human clinical use example: clinical assessments (scotopic response, geographic atrophy) after intravitreal decitabine; assay type: in vivo
# Description: A person with bilateral, dry age-related macular degeneration (AMD) is seen in an ophthalmology clinic. They are otherwise healthy. They consent to an experimental study comparing demethylation therapy verses control. At baseline both eyes show a similar level of AMD as evidenced by clinical assessments for visual acuity, size of geographic atrophy as measured by autofluorescence, optical coherence tomography, and scotopic response on electroretinography. The patient is treated with 100 uL of decitabine (20 uM) formulated as a sterile, isotonic, pH buffered solution administered by intravitreal injection in their left eye (active treatment). They receive 100 ul of the same sterile, isotonic, pH buffered solution but without decitabine administered by intravitreal injection in their right eye (control treatment). Immediately following the administration of the active and control treatments, a sample of intravitreal fluid is withdrawn from each eye for baseline measurements of ELOVL2 expression and methylation level. It is observed that ELOVL2 is hypermethylated to a similar extent in both eyes. The levels of ELOVL2 expression are also similar and a low level of expression is observed in both eyes. Both the active and control treatments are continued in the left and right eyes respectively with administrations every other week for 3 months. […] Immediately following the last administration, samples of intravitreal fluid are obtained from both eyes for measurement of ELOVL2 gene expression and methylation. The same clinical assessments for geographic atrophy performed at baseline are repeated for each eye. Significant differences are observed between the eye treated with decitabine compared to control. In the decitabine treated eye, ELOVL2 methylation is reduced by almost 30% and ELOVL2 gene expression is increased also by about 30% compared to baseline. Also, the scotopic response is increased by about 30% over baseline. […] In marked contrast, there is no observable change in the control eye in any of the other parameters. Gene methylation and gene expression and scotopic response values remain similar to those observed at baseline values. The patient returns to the clinic for a follow up visit at 6 months. […] Scotopic response in the control eye remains similar to the baseline value.
# A person with dry age-related macular degeneration (AMD) with Geographic Atrophy is seen in an ophthalmology clinic. Their vision as assessed by scotopic response is declining. […] They are otherwise healthy. The patient is treated with 100 uL of decitabine (15 uM) formulated as a sterile, isotonic, pH buffered solution administered by intravitreal injection. […] The decitabine treatment is continued with the same dose administered every 5 weeks over a 12 month period. […] Following the last decitabine administration a sample of vitreous fluid is obtained and tested for ELOVL2 gene methylation and ELOVL2 gene expression. The studies reveal ELOVL2 methylation has decreased by almost 60% (from baseline) and ELOVL2 gene expression is increased by about 50% (over the baseline value).
# patient with dry AMD [6] = assay: Human clinical use example: tolerability of intravitreal decitabine; assay type: in vivo
# Description: as §6, §7
# [7] = Geographic Atrophy patient, 100 uL of 15 uM intravitreal every 5 weeks over 12 months
# [8] = dry AMD patient, 100 uL of 20 uM intravitreal every other week for 3 months
compound,measurement,setting,value
"Nc1ncn([C@H]2C[C@H](O)[C@@H](CO)O2)c(=O)n1 [5-Aza-dc, 5-Aza-2′-deoxycytidine]",ELOVL2 promoter methylation,ELOVL2 promoter [1],reduced
same,ELOVL2 expression,ELOVL2 expression [2],upregulated
same,percentage of senescent cells in culture,WI-38 cells,lower percentage of senescent cells
same,methylation of the ELOVL2 promoter,ELOVL2 promoter [3],decreased
same,ELOVL2 expression,ELOVL2 expression [4],upregulated
same,scotopic response (ERG),mouse eyes,improved
same,ELOVL2 methylation decreased from baseline,ELOVL2 methylation; [7],~60%
same,ELOVL2 methylation reduced compared to baseline,ELOVL2 methylation; [8],about 30%
same,ELOVL2 gene expression increased over the baseline value,ELOVL2 gene expression; [7],about 50%
same,ELOVL2 gene expression increased compared to baseline,ELOVL2 gene expression; [8],about 30%
same,geographic atrophy growth by fundus autofluorescence,patient with dry AMD [5]; [7],no geographic atrophy growth
same,scotopic response increased over baseline,patient with dry AMD [5]; [7],about 30%
same,scotopic response improvement over baseline,"patient with dry AMD [5]; dry AMD patient, 20 uM bi-weekly for 3 months, follow up visit at 6 months",20%-30%
same,growth of geographic atrophy by fundus autofluorescence compared to baseline,patient with dry AMD [5]; [8],no progression
same,scotopic response increased over baseline,"patient with dry AMD [5]; dry AMD patient, 100 uL of 20 uM intravitreal every other week for 3 months, after last administration",about 30%
same,tolerability,patient with dry AMD [6]; [7],well tolerated with no adverse effects observed
same,tolerability,patient with dry AMD [6]; [8],equally well tolerated
